Assay results taken from patent US11617748B2, “Meclozine derivatives and diclazuril derivatives for use in the prevention and/or the treatment of disorders associated to the inflammation induced by P. acnes” (priority 2016, dated 2023).

What was measured:
Format in all cases: cell-based, human
[1] = system: ERK; test: Western blot of p-ERK/ERK in P. acnes-stimulated HaCaT cells; details: 24 h pre-treatment; for phosphorylation of ERKs induced by P. acnes: 10 μM; for phosphorylation of ERK induced by P. acnes: 25 μM
Description: (§1) Western Blot analysis. Whole cell protein extracts (25 μg) were separated by electrophoresis (LDS-PAGE) under denaturing conditions with NuPAGE Novex 4-12% Bis-Tris gel (1 mm, 12 wells, Invitrogen, UK) and proteins were transferred onto nitrocellulose membranes and saturated in 20 ml of saturation buffer consisting of TBS 1× (Tris Buffered Saline) containing 200 mM Tris, 1.4 M NaCl (pH 7.6), 5% no fat milk, 0.1% Tween 20 for 1 h. After washing three times for 15 min with 15 ml of TBS/T buffer [1×TBS, 0.1% Tween-20], membranes were incubated overnight with gentle mixing at 4° C. with 10 ml of rabbit polyclonal primary antibodies against human ICAM-1 (SC-7891, 1:500), PPARα (SC-398394, 1:250), PPARβ (SC-74517, 1:200), PPARγ (SC-7196, 1:500), IκB (SC-371, 1:500), p-IκB (SC-7977, 1:500), Cox-2 (SC-7951, 1:250), p-mTOR (CS, Ref 2974, 1:1000), mTOR (CS, Ref 2972, 1:1000), p-p38 (SC-17852, 1:500), p38 (SC-535, 1:250), ERK (SC-94, 1:500), JNK (SC-571, 1:500), and mouse monoclonal primary antibodies against human p-PI3 kinase (CS, Ref 4228, 1:250), PI3 kinase (CS, Ref 4257, 1:250), p-Akt1/2/3 (SC-81433, 1:500), p-ERK (SC-7383, 1:500), p-JNK (SC-6254, 1:500), -actin used to control loading, (SC-47778, 1:1000) diluted in TBS/T supplemented with 5% BSA (antibodies were purchased from Santa Cruz Biotechnology, Inc., Santa Cruz, Calif., USA abbreviated SC; and from Cell Signaling Technology, Inc. Leiden, The Netherlands abbreviated CS above). After washing to remove unbound antibodies, bound primary antibodies were detected by incubation for 1 h using secondary antibody against rabbit- and mouse IgG (Santa Cruz Biotechnology, SC-2357, 1:5000 and SC-2005, 1:5000, respectively). Unbound material was removed by washing and peroxidase activity was detected in a chemiluminescence assay (WesternBright ECL, Advansta, Menlo Park, USA).
The molecular basis for the inhibition of IL-8 production by diclazuril and meclozine has been investigated, in particular it has been evaluated if they interfered with signaling pathways known to be activated when keratinocytes are stimulated with P. acnes. It has first been confirmed the activation of IL-8 production when cells were stimulated by P. acnes while pre-treatment with both, diclazuril and meclozine, inhibit such production (FIG. 4A).
We also shown that the activation of HaCaT keratinocytes by P. acnes led to the activation of p-ERK, p-p38, p-JNK, p-PKC, p-Akt, p-mTOR (FIG. 15, panel P. acnes alone) and p-PI3K (FIG. 16, panel P. acnes alone).

[2] = system: IL-8 production; test: P. acnes-induced IL-8 production in HaCaT keratinocytes (ELISA); details: HaCaT cells pre-treated 24 h, no P. acnes stimulation
[3] = system: ICAM-1; test: Western blot of ICAM-1 expression in P. acnes-stimulated HaCaT cells; details: 25 μM, 24 h pre-treatment
Description: (§2) Western Blot analysis. Whole cell protein extracts (25 μg) were separated by electrophoresis (LDS-PAGE) under denaturing conditions with NuPAGE Novex 4-12% Bis-Tris gel (1 mm, 12 wells, Invitrogen, UK) and proteins were transferred onto nitrocellulose membranes and saturated in 20 ml of saturation buffer consisting of TBS 1× (Tris Buffered Saline) containing 200 mM Tris, 1.4 M NaCl (pH 7.6), 5% no fat milk, 0.1% Tween 20 for 1 h. […] After washing to remove unbound antibodies, bound primary antibodies were detected by incubation for 1 h using secondary antibody against rabbit- and mouse IgG (Santa Cruz Biotechnology, SC-2357, 1:5000 and SC-2005, 1:5000, respectively). Unbound material was removed by washing and peroxidase activity was detected in a chemiluminescence assay (WesternBright ECL, Advansta, Menlo Park, USA). […]

[4] = system: IκB; test: Western blot of IκB / p-IκB in P. acnes-stimulated HaCaT cells; details: 24 h pre-treatment; for degradation of p-IκB: 25 μM, P. acnes 30 min-24 h
Description: as §1
The molecular basis for the inhibition of IL-8 production by diclazuril and meclozine has been investigated, in particular it has been evaluated if they interfered with signaling pathways known to be activated when keratinocytes are stimulated with P. acnes. […]

[5] = system: Cox-2; test: Western blot of Cox-2 expression in P. acnes-stimulated HaCaT cells; details: 25 μM, 24 h pre-treatment
Description: as §2

| Compound | phosphorylation of ERKs induced by P. acnes [1] | phosphorylation of ERK induced by P. acnes [1] | IL-8 production in pretreated cells without being stimulated [2] | P. acnes-induced ICAM-1 expression [3] | degradation of IκB ([4]; 10 μM, P. acnes 15-180 min) | degradation of p-IκB [4] | expression of Cox-2 [5] |
| --- | --- | --- | --- | --- | --- | --- | --- |
| N#CC(c1ccc(Cl)cc1)c1c(Cl)cc(-n2ncc(=O)[nH]c2=O)cc1Cl (stereo not shown) [diclazuril, Diclazuril] | prevented the phosphorylation of ERKs | prevented the phosphorylation | no change | no effect | did not prevented the degradation of IκB | did not alter the degradation of p-IκB | decrease |
| Cc1cccc(CN2CCN(C(c3ccccc3)c3ccc(Cl)cc3)CC2)c1 (stereo not shown) [meclozine, Meclozine] | prevented the phosphorylation of ERKs | prevented the phosphorylation | no change | decreased its expression | – | did not alter the degradation of p-IκB | strongly decrease |
